Measurements taken from paper PMC4032265 (PLoS ONE, 2014).

Assays:
[1] = biological target: 5HT6 serotonergic receptor (Homo sapiens, UniProt P50406); test: PDSP radioligand binding, 5HT6; conditions: read-out: % inhibition at 10 µM; single concentration 10 µM
[2] = biological target: M3 muscarinic acetylcholine receptor (Homo sapiens, UniProt P20309); test: PDSP radioligand binding, M3; conditions: read-out: % inhibition at 10 µM; single concentration 10 µM
δ opioid receptor = δ opioid receptor (Homo sapiens, UniProt P41143); test: PDSP radioligand binding, δ opioid; conditions: read-out: % inhibition at 10 µM; single concentration 10 µM
D1 dopaminergic receptor = D1 dopaminergic receptor (Homo sapiens, UniProt P21728); test: PDSP radioligand binding, D1; conditions: read-out: % inhibition at 10 µM; single concentration 10 µM
[3] = biological target: 5HT1E serotonergic receptor (Homo sapiens, UniProt P28566); test: PDSP radioligand binding, 5HT1E; conditions: read-out: % inhibition at 10 µM; single concentration 10 µM
[4] = biological target: T1, M4 muscarinic acetylcholine receptor (Homo sapiens, UniProt P08173); test: PDSP radioligand binding, M4; conditions: read-out: % inhibition at 10 µM; single concentration 10 µM
T1 sequence (P08173 1-479): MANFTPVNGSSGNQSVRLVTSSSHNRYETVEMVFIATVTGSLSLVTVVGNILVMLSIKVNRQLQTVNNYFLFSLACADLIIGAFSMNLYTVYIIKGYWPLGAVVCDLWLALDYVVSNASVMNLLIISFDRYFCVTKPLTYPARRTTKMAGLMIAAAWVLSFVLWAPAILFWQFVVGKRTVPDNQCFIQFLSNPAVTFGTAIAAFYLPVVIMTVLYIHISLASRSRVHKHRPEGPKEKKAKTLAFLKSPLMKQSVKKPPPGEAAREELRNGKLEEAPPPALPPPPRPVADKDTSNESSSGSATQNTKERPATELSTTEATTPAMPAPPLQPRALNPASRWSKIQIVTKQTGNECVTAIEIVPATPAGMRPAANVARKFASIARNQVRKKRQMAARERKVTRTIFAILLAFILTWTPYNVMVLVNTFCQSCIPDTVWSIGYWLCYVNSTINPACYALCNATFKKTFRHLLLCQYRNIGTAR

D2 dopaminergic receptor = D2 dopaminergic receptor (Homo sapiens, UniProt P14416); test: PDSP radioligand binding, D2; conditions: read-out: % inhibition at 10 µM; single concentration 10 µM
[5] = biological target: T2, 5HT2C serotonergic receptor (Homo sapiens, UniProt P28335); test: PDSP radioligand binding, 5HT2C
T2 sequence (P28335 33-458): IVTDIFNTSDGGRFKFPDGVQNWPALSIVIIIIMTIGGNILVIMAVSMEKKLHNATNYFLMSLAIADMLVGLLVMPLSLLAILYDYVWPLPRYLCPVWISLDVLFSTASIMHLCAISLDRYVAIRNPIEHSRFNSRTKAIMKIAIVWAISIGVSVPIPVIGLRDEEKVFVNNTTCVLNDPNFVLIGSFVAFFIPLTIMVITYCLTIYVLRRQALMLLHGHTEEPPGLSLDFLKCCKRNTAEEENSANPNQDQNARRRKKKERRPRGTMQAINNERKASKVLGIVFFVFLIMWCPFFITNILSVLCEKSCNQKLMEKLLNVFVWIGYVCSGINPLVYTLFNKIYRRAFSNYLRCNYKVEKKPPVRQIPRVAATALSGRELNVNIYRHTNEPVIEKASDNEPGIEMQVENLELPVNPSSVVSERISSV

hERG potassium channel = hERG potassium channel (Homo sapiens, UniProt Q12809); test: PDSP hERG functional assay; type: cell-based; conditions: single point 10 µM
[6] = biological target: T3, M5 muscarinic acetylcholine receptor (Homo sapiens, UniProt P08912); test: PDSP radioligand binding, M5; conditions: read-out: % inhibition at 10 µM; single concentration 10 µM
T3 sequence (P08912 1-532): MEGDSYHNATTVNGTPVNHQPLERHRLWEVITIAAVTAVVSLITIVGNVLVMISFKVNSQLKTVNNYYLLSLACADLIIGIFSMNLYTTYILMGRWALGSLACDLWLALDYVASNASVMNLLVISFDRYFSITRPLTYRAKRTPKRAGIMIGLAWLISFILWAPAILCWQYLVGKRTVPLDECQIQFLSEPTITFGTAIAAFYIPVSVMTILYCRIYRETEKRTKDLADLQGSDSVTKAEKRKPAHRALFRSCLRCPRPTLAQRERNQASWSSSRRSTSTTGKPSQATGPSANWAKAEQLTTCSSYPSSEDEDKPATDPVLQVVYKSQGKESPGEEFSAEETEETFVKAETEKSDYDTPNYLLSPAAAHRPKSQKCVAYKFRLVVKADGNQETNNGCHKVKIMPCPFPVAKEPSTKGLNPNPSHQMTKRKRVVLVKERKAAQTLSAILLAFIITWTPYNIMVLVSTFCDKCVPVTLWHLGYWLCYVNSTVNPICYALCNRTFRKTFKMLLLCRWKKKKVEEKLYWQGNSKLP

D3 dopaminergic receptor = D3 dopaminergic receptor (Homo sapiens, UniProt P35462); test: PDSP radioligand binding, D3; conditions: read-out: % inhibition at 10 µM; single concentration 10 µM
κ opioid receptor = κ opioid receptor (Homo sapiens, UniProt P41145); test: PDSP radioligand binding, κ opioid; conditions: read-out: % inhibition at 10 µM
D4 dopaminergic receptor = biological target: T4, D4 dopaminergic receptor (Homo sapiens, UniProt P21917); test: PDSP radioligand binding, D4; conditions: read-out: % inhibition at 10 µM; single concentration 10 µM
T4 sequence (P21917 1-419): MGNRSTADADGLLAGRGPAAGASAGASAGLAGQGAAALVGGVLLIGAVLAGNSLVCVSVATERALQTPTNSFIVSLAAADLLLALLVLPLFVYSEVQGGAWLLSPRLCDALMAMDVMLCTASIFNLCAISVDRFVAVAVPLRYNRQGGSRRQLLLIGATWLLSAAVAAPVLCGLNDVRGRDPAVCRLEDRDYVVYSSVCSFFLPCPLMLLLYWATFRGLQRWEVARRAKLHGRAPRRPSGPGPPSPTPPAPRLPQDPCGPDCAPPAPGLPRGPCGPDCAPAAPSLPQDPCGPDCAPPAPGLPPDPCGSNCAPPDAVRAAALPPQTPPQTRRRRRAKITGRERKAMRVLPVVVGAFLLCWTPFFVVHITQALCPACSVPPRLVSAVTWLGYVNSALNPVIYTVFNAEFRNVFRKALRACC

[7] = biological target: 5HT5A serotonergic receptor (Homo sapiens, UniProt P47898); test: PDSP radioligand binding, 5HT5A; conditions: read-out: % inhibition at 10 µM; single concentration 10 µM
[8] = biological target: H1 histaminergic receptor (Homo sapiens, UniProt P35367); test: PDSP radioligand binding, H1; conditions: read-out: % inhibition at 10 µM; single concentration 10 µM
[9] = biological target: 5HT1B serotonergic receptor (Homo sapiens, UniProt P28222); test: PDSP radioligand binding, 5HT1B; conditions: read-out: % inhibition at 10 µM; single concentration 10 µM
Chain of 5HT1B serotonergic receptor (P28222 whole entry): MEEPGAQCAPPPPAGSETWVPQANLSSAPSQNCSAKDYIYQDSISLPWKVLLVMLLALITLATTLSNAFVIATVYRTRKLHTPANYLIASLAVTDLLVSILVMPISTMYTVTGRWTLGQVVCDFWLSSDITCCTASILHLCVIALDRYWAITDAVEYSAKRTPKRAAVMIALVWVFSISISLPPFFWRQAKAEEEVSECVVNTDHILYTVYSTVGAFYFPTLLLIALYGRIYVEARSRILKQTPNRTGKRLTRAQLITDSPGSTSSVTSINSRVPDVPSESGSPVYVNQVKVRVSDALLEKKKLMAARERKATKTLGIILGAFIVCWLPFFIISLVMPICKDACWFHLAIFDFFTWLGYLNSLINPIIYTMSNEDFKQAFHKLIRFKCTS

Chain of hERG potassium channel (Q12809 whole entry): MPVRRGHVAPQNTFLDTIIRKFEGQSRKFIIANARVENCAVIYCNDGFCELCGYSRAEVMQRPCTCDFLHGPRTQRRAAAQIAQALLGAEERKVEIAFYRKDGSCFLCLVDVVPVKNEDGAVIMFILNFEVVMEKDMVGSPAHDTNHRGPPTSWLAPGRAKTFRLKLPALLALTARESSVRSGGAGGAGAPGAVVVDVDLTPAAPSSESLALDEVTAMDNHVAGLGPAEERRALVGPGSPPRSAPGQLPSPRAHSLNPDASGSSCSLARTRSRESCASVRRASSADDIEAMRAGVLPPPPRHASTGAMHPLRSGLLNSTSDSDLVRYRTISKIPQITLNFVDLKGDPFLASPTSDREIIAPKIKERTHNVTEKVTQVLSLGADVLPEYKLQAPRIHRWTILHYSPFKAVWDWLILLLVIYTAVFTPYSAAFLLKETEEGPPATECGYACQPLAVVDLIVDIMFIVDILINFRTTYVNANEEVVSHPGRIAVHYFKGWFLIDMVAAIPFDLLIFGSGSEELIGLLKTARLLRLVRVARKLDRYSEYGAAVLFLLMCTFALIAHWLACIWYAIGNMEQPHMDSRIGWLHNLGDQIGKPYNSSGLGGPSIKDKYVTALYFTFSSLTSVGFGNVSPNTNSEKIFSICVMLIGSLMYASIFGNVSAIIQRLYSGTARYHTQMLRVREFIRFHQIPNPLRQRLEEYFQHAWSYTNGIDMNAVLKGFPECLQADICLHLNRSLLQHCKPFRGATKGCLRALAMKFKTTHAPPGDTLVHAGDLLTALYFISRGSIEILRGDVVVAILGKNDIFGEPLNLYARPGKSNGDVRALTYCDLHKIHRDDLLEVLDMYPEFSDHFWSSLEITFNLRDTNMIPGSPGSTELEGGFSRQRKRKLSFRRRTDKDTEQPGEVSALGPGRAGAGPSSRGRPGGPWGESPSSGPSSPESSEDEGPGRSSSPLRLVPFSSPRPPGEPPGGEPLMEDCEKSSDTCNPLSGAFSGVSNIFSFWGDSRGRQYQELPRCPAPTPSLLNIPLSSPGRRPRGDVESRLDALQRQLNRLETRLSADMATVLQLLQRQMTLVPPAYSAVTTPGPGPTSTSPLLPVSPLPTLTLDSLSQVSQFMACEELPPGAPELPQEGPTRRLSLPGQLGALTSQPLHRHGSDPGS
Chain of D2 dopaminergic receptor (P14416 whole entry): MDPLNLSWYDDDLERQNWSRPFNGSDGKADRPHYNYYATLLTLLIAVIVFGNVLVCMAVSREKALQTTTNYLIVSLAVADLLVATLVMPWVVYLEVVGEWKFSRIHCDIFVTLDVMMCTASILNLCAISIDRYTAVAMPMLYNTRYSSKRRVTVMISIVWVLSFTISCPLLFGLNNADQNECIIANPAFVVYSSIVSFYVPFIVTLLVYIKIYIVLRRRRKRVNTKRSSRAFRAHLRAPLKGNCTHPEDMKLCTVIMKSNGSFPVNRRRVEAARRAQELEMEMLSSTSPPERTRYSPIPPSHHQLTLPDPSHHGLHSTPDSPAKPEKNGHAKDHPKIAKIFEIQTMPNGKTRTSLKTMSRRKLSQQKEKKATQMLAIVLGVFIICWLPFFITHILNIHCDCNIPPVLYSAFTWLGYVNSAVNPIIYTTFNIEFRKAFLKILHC
Chain of δ opioid receptor (P41143 whole entry): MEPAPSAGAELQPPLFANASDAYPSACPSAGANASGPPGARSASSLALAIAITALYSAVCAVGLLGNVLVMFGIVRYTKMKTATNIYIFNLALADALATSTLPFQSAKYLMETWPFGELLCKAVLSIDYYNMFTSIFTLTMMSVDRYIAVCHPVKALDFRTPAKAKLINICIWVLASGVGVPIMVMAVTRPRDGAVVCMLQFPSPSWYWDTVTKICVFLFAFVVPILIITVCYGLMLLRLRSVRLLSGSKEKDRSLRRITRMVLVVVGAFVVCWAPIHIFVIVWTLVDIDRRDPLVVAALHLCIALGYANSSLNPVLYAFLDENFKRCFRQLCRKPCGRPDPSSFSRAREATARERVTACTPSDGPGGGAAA
Chain of 5HT5A serotonergic receptor (P47898 whole entry): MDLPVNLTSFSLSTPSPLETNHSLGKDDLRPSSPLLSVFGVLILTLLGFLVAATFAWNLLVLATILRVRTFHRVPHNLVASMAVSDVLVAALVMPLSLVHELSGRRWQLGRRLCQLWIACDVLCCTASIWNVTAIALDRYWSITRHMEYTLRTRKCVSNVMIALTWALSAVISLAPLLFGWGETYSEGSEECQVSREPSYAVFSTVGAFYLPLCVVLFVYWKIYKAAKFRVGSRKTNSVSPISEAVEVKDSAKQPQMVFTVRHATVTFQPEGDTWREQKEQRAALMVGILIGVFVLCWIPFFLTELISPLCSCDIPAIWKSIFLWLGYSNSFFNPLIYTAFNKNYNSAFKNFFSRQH
Chain of κ opioid receptor (P41145 whole entry): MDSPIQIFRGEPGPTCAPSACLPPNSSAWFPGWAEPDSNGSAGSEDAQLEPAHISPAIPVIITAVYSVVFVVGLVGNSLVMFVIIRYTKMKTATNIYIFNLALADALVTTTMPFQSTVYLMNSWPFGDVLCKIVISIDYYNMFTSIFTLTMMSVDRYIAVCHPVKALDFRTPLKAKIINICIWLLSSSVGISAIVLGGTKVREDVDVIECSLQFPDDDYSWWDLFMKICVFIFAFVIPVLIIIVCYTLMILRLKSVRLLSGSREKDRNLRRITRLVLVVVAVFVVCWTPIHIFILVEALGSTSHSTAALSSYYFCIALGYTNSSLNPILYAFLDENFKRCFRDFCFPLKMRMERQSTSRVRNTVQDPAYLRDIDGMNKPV
Chain of 5HT1E serotonergic receptor (P28566 whole entry): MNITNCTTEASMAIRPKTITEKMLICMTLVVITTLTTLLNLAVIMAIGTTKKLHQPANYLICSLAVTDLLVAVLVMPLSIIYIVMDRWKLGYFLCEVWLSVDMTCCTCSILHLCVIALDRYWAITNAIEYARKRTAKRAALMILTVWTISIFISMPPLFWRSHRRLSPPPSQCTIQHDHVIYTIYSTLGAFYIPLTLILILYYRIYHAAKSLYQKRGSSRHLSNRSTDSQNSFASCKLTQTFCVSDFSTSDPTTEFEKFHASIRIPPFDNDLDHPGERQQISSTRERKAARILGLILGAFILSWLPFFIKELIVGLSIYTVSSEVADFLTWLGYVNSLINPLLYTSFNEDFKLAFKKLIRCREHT
Chain of D3 dopaminergic receptor (P35462 whole entry): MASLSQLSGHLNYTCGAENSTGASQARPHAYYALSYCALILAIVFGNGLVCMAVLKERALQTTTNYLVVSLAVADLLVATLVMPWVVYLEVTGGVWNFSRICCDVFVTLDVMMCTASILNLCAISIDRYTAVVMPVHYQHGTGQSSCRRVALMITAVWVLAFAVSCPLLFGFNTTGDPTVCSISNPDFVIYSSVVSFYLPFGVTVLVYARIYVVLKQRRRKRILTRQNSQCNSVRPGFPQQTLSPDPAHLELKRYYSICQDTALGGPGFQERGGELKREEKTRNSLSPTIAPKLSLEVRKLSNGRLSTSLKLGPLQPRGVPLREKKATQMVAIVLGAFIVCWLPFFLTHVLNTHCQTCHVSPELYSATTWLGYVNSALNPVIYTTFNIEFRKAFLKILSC
Chain of M3 muscarinic acetylcholine receptor (P20309 whole entry): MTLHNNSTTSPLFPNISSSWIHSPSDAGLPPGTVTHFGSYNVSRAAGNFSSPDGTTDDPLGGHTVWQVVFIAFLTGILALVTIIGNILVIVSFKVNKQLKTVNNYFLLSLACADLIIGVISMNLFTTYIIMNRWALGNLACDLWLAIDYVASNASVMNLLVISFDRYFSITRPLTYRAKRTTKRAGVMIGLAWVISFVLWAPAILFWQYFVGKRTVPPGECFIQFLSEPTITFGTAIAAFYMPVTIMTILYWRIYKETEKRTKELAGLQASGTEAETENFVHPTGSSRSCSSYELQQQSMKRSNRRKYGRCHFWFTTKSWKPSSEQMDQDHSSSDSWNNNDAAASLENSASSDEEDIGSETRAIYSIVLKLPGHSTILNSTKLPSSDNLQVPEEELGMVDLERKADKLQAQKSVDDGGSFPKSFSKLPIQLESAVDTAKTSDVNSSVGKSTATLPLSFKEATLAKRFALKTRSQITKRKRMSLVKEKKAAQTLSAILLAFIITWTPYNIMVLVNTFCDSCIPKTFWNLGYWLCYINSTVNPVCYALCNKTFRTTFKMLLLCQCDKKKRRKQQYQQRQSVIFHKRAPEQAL
Chain of D1 dopaminergic receptor (P21728 whole entry): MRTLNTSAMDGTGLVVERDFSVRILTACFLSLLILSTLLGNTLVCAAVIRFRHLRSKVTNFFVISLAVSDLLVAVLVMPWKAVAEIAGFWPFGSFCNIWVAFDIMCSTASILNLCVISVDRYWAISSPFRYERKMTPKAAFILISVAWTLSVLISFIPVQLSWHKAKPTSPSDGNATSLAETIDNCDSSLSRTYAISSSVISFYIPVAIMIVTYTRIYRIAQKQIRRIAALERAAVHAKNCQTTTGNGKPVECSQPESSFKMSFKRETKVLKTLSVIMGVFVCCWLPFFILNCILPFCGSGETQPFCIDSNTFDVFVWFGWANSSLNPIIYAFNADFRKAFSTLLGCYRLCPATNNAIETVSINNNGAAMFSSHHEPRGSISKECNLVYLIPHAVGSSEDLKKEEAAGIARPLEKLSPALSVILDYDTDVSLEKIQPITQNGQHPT

**Q.** With O[C@@H]1[C@H](O)[C@@H]2C[C@@H]2[C@H]1n1cnc2c(NC(C3CC3)C3CC3)nc(Cl)nc21 [Compound 10] as the compound, how does the inhibition at 10 µM [1] read?
**A.** 0%

**Q.** And the inhibition at 10 µM [2]?
**A.** 0%

**Q.** What about the inhibition at 10 µM (δ opioid receptor) of the same compound?
**A.** 0%

**Q.** What about the inhibition at 10 µM (D1 dopaminergic receptor) of the same compound?
**A.** 0%

**Q.** What about the inhibition at 10 µM [3] of the same compound?
**A.** 3%

**Q.** And the inhibition at 10 µM [4]?
**A.** 7%

**Q.** What about the inhibition at 10 µM (D2 dopaminergic receptor) of the same compound?
**A.** 29%

**Q.** What about the Ki ([5]; full concentration-response curves, n = 3-6 unless noted) of the same compound?
**A.** 1850 ± 460 nM

**Q.** And the inhibition at 10 µM ([5]; read-out: % inhibition at 10 µM)?
**A.** 49%

**Q.** What about the “% inhibition at 10 µM (hERG functional assay)” value (hERG potassium channel) of the same compound?
**A.** 4.5 ± 2.4%

**Q.** And the inhibition at 10 µM [6]?
**A.** 0%

**Q.** What about the inhibition at 10 µM (D3 dopaminergic receptor) of the same compound?
**A.** 8%

**Q.** What about the inhibition at 10 µM (κ opioid receptor) of the same compound?
**A.** 0%

**Q.** What about the inhibition at 10 µM (D4 dopaminergic receptor) of the same compound?
**A.** 0%

**Q.** What about the inhibition at 10 µM [7] of the same compound?
**A.** 0%

**Q.** What about the inhibition at 10 µM [8] of the same compound?
**A.** 0%

**Q.** And the inhibition at 10 µM [9]?
**A.** 0%
